Assay results as given in US9637592B2, “Vitamin functionalized gel-forming block copolymers for biomedical applications” (International Business Machines Corporation, priority 2013, dated 2017).

Key:
[1] = system: P. aeruginosa; experiment: killing efficiency / MBC; format: cell-based, Pseudomonas aeruginosa; conditions: drug alone
Protocol: Procedure for hydrogels: E. coli, P. aeruginosa, S. aureus and C. albicans were obtained from ATCC and reconstituted from its lyophilized form according to the manufacturer's protocol. Bacterial samples were cultured in Tryptic Soy Broth (TSB) solution at 37° C. under constant shaking of 300 rpm. C. albicans was culture in yeast medium at room temperature under constant shaking of 70 rpm. Prior to treatment, the bacterial sample was first inoculated and cultured to enter into log growth phase. To prepare the antimicrobial hydrogels, cationic polymer was first dissolved in filtered HPLC water in a bio-hood. The resultant solution was then added to solid triblock copolymer for dissolution and left to stand 4 hours at room temperature for the formation of the hydrogels (Example 28 and Example 29). […]
[…] The concentration of bacterial solution was adjusted to give an initial optical density (O.D.) reading of approximately 0.07 at 600 nm wavelength on a microplate reader (TECAN, Switzerland), which corresponds to the concentration of McFarland 1 solution (3×10^8 CFU/mL) The bacterial solution was then diluted and an equal volume of bacterial suspension (3×10^5) was added into each well. […] The plates were incubated for 24 hours at 37° C. and the number of colony-forming units (CFU) was counted. […]

[2] = system: C. albicans; format: cell-based, Candida albicans; conditions: solution, 5.0 mg/L (5 ppm)
Protocol: A stock solution of cationic polymer VE/PrBr(1:15) (5 mg) in sterile HPLC grade water (10 ml) was prepared having a final concentration of 500 mg/L (500 ppm). A second stock solution of fluconazole (1 mg) in sterile HPLC grade water (100 ml) was prepared having a final concentration of 10 mg/L (10 ppm). […] Formulation (2) was obtained by combining 125 microliters each of the stock solutions of cationic polymer and fluconazole and diluting the resulting solution with 750 microliters of sterile HPLC grade water.

Q: How did the “MBC against P. aeruginosa” value [1] turn out when Doxycycline [DXY] was run?
A: The value was 20 to 30 µg/mL.

Q: How did the “killing efficiency against C. albicans” value [2] turn out when Fluconazole was run?
A: Its value is 93.53%.
